Here are results for five compounds from patent publication US20260226084A1, “DUAL RAF AND TUBULIN INHIBITORS AND METHODS OF USE THEREOF” (Deciphera Pharmaceuticals, LLC, priority 2023, published 2026).

Experiment [1] has as its target T1, C-Raf kinase (SEQ ID NO: 2) (Homo sapiens, UniProt P04049, Y340D/Y341D).
T1 construct: C-Raf residues 306-end; Y340D, Y341D with; GST (N); purchased Sigma
Put plainly: Biochemical Assay for C-Raf (coupled pyruvate kinase/lactate dehydrogenase assay).

In another experiment the test system is HCT-116 cells. Put plainly: HCT-116 Cell Proliferation Assay. It is filed as cell-based. Particulars: Homo sapiens. In outline:
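HCT-116 cells, 375/well in McCoy's 5A with 10% FBS, exposed to serial compound dilutions in triplicate for 67 to 72 hours at 37 °C. Viability read by resazurin fluorescence (ex 540/em 600 nm) after a further 4 to 5 h; IC50 values calculated.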

The test system of experiment [2] is tubulin polymerization in HCT-116 cells. Briefly: Cellular Tubulin Polymerization Assay. In kind it is cell-based. Particulars: Homo sapiens, Table 3, read-out: Tubulin Cellular (IC50 class). How it is done:
HCT-116 cells (catalog #CCL-247) are obtained from the American Type Culture Collect (ATCC, Manassas, VA). Briefly, cells are grown in McCoy's 5A supplemented with 10% characterized fetal bovine serum (Invitrogen, Carlsbad, CA) and 1% Penicillin/Streptomycin/L-Glutamine at 37° C., 5% CO2, and 95% humidity. Cells are expanded until reaching 70-95% confluency at which point they are subcultured or harvested for assay use. 450000 cells are added per well in 1500 μL complete growth medium in a tissue culture treated, 12-well plate. Plates are incubated for 18 to 24 h at 37° C., 5% CO2, and 95% humidity. At the end of the incubation, 2000 μL of base culture media is added to each well, followed by a serial dilution of compound. Plates are incubated for an additional 1 h at 37° C., 5% CO2, and 95% humidity. Lysates are generated by the addition of 100 μL Lysis and Microtubule Stabilization Buffer 1 (LMS01, Cytoskeleton Inc, Denver, CO) supplemented with GTP (BST06, Cytoskeleton Inc), ATP (BSA04, Cytoskeleton Inc), and Protease Inhibitor Cocktail Stock (PIC02, Cytoskeleton Inc). Cells are scraped off wells using a rubber cell scraper and collected in a clean 96-well plate. Lysates are centrifuged at 1000×g, 37° C. for 10 min and supernatant fraction is placed into an additional 96-well plate. The remaining pellet fraction is reconstituted in 100 μL LMS01 buffer and sonicated for 10 min. Pellet and Supernatant fractions are probed for α-tubulin via western blot analysis on the Jess System or equivalent (Bio-techne, Minneapolis, MN). Data is analyzed using Prism software (Graphpad, San Diego, CA) to calculate IC50values.

The subject of another experiment is MiaPaca-2 cells. Put plainly: MiaPaca-2 Cell Proliferation Assay. It is filed as cell-based. Particulars: Homo sapiens. In outline:
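Viability was read as resazurin fluorescence (540 nm excitation, 600 nm emission) after 5–6 h with dye. Compounds were tested as serial dilutions in triplicate, with IC50 derived from the dose–response.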

The test system of a further experiment is Pa16c cells. Put plainly: Pa16c Cell Proliferation Assay. In kind it is cell-based. Particulars: Table 2, read-out: Inhibition of cell proliferation in Pa16c (IC50 class). A digest of the protocol:
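Mouse Pa16c cells, 750/well in DMEM with 10% FBS, exposed to serially diluted compound in triplicate for 67 to 72 h at 37° C. Viability read by resazurin reduction over a further 18 to 24 h (ex 540/em 600 nm). IC50 calculated from the dose-response.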

The target of a further experiment is T2, Porcine Brain Tubulin (Sus scrofa, UniProt P02550+P02554).
T2 construct: Porcine Brain Tubulin (T240); purchased Cytoskeleton, Inc T240; BK011P; host or cells: porcine brain (tissue-purified)
Briefly: Biochemical Tubulin Polymerization Assay. The following applies: Table 3; Tubulin Biochemical assay; read-out: Tubulin Biochem (IC50 class).

Where [3] appears, read: 1 mM ATP, read-out: CRAF (inhibition of biochemical activity, IC50).
Where [4] appears, read: Table 3, read-out: CRAF (IC50 class).
Setting [5] is: HCT-116, HCT-116 cells, Table 2, read-out: Inhibition of cell proliferation in HCT-116 (IC50 class).
Where [6] appears, read: HCT-116, Table 3, read-out: HCT-116 (IC50 class).
Where [7] appears, read: MIA PaCa-2, MiaPaca-2 cells, Table 2, read-out: Inhibition of cell proliferation in MiaPaca-2 (IC50 class).
The mark [8] stands for this setting: MIA PaCa-2, Table 3, read-out: MiaPaca-2 (IC50 class).

Like-named read-outs stand apart in the source and are kept apart here.

T1 sequence (P04049 307-648 Y340D/Y341D): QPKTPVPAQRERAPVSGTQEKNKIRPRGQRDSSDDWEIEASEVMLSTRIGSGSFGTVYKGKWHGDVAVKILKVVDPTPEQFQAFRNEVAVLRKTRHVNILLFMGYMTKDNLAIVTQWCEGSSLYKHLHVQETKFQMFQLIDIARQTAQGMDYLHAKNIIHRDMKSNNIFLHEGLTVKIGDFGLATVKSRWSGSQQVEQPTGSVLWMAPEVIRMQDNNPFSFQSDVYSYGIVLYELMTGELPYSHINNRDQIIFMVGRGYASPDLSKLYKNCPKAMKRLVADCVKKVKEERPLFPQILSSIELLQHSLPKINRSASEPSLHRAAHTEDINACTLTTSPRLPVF
T2 sequence (P02550 whole entry): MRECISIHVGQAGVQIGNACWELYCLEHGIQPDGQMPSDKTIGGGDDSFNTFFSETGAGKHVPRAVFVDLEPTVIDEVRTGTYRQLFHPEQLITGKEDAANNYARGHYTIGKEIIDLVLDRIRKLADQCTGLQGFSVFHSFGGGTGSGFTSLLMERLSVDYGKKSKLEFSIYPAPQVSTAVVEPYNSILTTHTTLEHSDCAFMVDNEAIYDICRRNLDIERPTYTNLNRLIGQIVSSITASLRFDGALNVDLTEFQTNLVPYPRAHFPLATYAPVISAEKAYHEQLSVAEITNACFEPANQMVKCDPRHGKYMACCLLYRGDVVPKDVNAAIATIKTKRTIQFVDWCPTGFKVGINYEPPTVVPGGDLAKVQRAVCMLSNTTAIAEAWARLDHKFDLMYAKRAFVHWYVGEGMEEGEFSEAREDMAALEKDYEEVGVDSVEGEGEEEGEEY
T2 sequence (P02554 whole entry): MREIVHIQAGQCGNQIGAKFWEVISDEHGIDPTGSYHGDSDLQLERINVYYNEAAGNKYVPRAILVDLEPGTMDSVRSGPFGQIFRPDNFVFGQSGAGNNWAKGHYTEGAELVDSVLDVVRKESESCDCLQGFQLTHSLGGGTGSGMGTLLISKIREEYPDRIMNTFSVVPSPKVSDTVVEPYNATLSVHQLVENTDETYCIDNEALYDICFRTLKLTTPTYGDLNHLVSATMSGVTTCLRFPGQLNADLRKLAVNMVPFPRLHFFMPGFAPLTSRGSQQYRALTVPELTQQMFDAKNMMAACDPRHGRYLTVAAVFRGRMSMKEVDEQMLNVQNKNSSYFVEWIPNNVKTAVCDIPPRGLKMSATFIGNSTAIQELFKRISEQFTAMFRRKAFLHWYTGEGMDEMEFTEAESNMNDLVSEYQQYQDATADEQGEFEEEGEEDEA

On to `Cc1ccc(NC(=O)c2cnc(C(F)(F)F)nc2)cc1-c1ccnc(-c2ccnc(NC(=O)C3CC3)c2)c1` [Example 17], for which the IC50 is < 100 nM in experiment [1] (setting [3]); < 100 nM in experiment [1] (setting [4]); 100 to 500 nM with HCT-116 cells (setting [5]); 100 to 500 nM in the experiment on HCT-116 cells (setting [6]); 500 to 1000 nM in experiment [2]; 100 to 500 nM in the experiment with MiaPaca-2 cells (setting [7]). For the same compound, the IC50 with MiaPaca-2 cells (setting [8]) was 100 to 500 nM; in the experiment on Pa16c cells, < 100 nM; at Porcine Brain Tubulin, 3000 to 20000 nM.

Consider `Cc1ccc(NC(=O)c2cc(C(C)(F)F)cnn2)cc1-c1ccnc(-c2ccnc(NC(=O)C3CC3)c2)c1` [Example 57], for which the IC50 in experiment [1] (setting [3]) is < 100 nM; in experiment [1] (setting [4]) it was < 100 nM; in the experiment with HCT-116 cells (setting [5]), < 100 nM; in the experiment with HCT-116 cells (setting [6]), < 100 nM; in experiment [2], 1000 to 10000 nM; with MiaPaca-2 cells (setting [7]) it was < 100 nM. In addition, the IC50 in the experiment with MiaPaca-2 cells (setting [8]) was < 100 nM; in the experiment with Pa16c cells, 100 to 500 nM; at Porcine Brain Tubulin it was < 3000 nM.

`Cc1ccc(NC(=O)c2cc(C#N)cnn2)cc1-c1ccnc(-c2ccnc(NC(=O)C3CC3)c2)c1` [Example 96, 5-cyano-N-(3-(2′-(cyclopropanecarboxamido)-[2,4′-bipyridin]-4-yl)-4-methylphenyl)pyridazine-3-carboxamide]: the IC50 in experiment [1] (setting [3]) is < 100 nM; in experiment [1] (setting [4]) it was < 100 nM; in the experiment on HCT-116 cells (setting [5]) it was 100 to 500 nM; in the experiment with HCT-116 cells (setting [6]), 100 to 500 nM; in experiment [2] it was < 100 nM; with MiaPaca-2 cells (setting [7]), < 100 nM. Further, the results for the IC50 in the experiment on MiaPaca-2 cells (setting [8]), in the experiment on Pa16c cells and on Porcine Brain Tubulin were < 100 nM, 1000 to 10000 nM and 3000 to 20000 nM, respectively.

For the compound `Cc1ccc(NC(=O)c2cc(C3CC3)cnn2)cc1-c1ccnc(-c2ccnc(NC(=O)C3CC3)c2)c1` [Example 43], the IC50 (in experiment [1] (setting [3]); in experiment [1] (setting [4]); in the experiment on HCT-116 cells (setting [5]); in the experiment with HCT-116 cells (setting [6]); in experiment [2]; in the experiment on MiaPaca-2 cells (setting [7])) was < 100 nM throughout. Further, the IC50 in the experiment on MiaPaca-2 cells (setting [8]) was < 100 nM; in the experiment with Pa16c cells, < 100 nM; at Porcine Brain Tubulin, 3000 to 20000 nM.

Regarding `Cc1ccc(NC(=O)c2cc(C(F)(F)F)cnn2)cc1-c1ccnc(-c2ccnc(NC(=O)C3CC3)c2)c1` [Example 67], the IC50 (in experiment [1] (setting [3]); in experiment [1] (setting [4]); in the experiment on HCT-116 cells (setting [5]); in the experiment with HCT-116 cells (setting [6]); in experiment [2]; in the experiment with MiaPaca-2 cells (setting [7])) was < 100 nM each time. The IC50 is < 100 nM in the experiment on MiaPaca-2 cells (setting [8]), < 100 nM with Pa16c cells and < 3000 nM on Porcine Brain Tubulin.
